These results are taken from US10736883B2, “Triazole furan compounds as agonists of the APJ receptor” (AMGEN INC., priority 2016, dated 2020).

SMILES strings stand for the structures. pEC50: −log10 of the molar value.

The target of the assay is APJ receptor (Homo sapiens (Human), UniProt P35414). Put plainly: [35S]GTPγS binding assay on membranes from CHO cells stably expressing human APJ receptor. It is filed as biochemical. The following applies: membranes of CHO cells stably expressing human APJ receptor, means of several independent experiments, read-out: Activity hAPJ SPA EC50 IP. In short, it runs like this: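 Membranes from CHO cells stably expressing human APJ were incubated with 0.2 nM [35S]GTPγS and ligands for 90 min at RT in 20 mM HEPES pH 7.5, 5 mM MgCl2, 200 mM NaCl, 3 μM GDP, 0.1% BSA with WGA PS beads. Nonspecific binding was set with 100 μM GTPγS. EC50 came from non-linear regression.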
APJ receptor, sequence (P35414 whole entry): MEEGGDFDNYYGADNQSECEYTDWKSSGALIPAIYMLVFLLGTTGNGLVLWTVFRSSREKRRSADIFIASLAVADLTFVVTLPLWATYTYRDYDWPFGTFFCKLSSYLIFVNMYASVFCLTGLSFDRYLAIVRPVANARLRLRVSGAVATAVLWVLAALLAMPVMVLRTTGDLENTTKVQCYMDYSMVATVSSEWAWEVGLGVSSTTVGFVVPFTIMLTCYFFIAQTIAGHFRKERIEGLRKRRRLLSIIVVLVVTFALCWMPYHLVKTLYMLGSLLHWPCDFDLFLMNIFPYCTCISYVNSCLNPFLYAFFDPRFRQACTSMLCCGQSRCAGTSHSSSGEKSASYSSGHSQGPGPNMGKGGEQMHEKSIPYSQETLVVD
Broadly, the pEC50 is the negative decadic logarithm of the EC50, by convention in mol/L. `COc1cccc(OC)c1-n1c(NS(=O)(=O)[C@H](C)Cc2cncnc2)nnc1-c1ccco1` (single isomer, unassigned) [Example 45.0, (2R)—N-(4-(2,6-dimethoxyphenyl)-5-(2-furanyl)-4H-1,2,4-triazol-3-yl)-1-(5-pyrimidinyl)-2-propanesulfonamide or (2S)—N-(4-(2,6-dimethoxyphenyl)-5-(2-furanyl)-4H-1,2,4-triazol-3-yl)-1-(5-pyrimidinyl)-2-propanesulfonamide]: the pEC50 is 7.14.

With `COc1cccc(OC)c1-n1c(NS(=O)(=O)[C@H](C)Cc2ccncn2)nnc1-c1ccco1` (single isomer, unassigned) [Example 46.0, (2R)—N-(4-(2,6-dimethoxyphenyl)-5-(2-furanyl)-4H-1,2,4-triazol-3-yl)-1-(4-pyrimidinyl)-2-propanesulfonamide or (2S)—N-(4-(2,6-dimethoxyphenyl)-5-(2-furanyl)-4H-1,2,4-triazol-3-yl)-1-(4-pyrimidinyl)-2-propanesulfonamide], the pEC50 is 6.52.

`COc1cccc(OC)c1-n1c(NS(=O)(=O)[C@@H](C)[C@@H](O)c2coc(C)n2)nnc1-c1ccc(C)o1` (single isomer, unassigned) [Example 55.0, (1S,2S)—N-(4-(2,6-dimethoxyphenyl)-5-(5-methyl-2-furanyl)-4H-1,2,4-triazol-3-yl)-1-hydroxy-1-(2-methyl-1,3-oxazol-4-yl)-2-propanesulfonamide or (1R,2R)—N-(4-(2,6-dimethoxyphenyl)-5-(5-methyl-2-furanyl)-4H-1,2,4-triazol-3-yl)-1-hydroxy-1-(2-methyl-1,3-oxazol-4-yl)-2-propanesulfonamide]: the pEC50 is 7.55.

As to `COc1cccc(OC)c1-n1c(NS(=O)(=O)[C@@H](C)[C@@H](O)c2ccc(F)cn2)nnc1-c1ccc(C)o1` (single isomer, unassigned) [Example 57.0], the pEC50 was 9.96.

Consider `COc1cccc(OC)c1-n1c(NS(=O)(=O)C[C@H](O)c2ccc(C#N)cn2)nnc1-c1ccc(C)o1` (single isomer, unassigned) [Example 58.0, (2R)-2-(5-cyano-2-pyridinyl)-N-(4-(2,6-dimethoxyphenyl)-5-(5-methyl-2-furanyl)-4H-1,2,4-triazol-3-yl)-2-hydroxyethanesulfonamide or (2S)-2-(5-cyano-2-pyridinyl)-N-(4-(2,6-dimethoxyphenyl)-5-(5-methyl-2-furanyl)-4H-1,2,4-triazol-3-yl)-2-hydroxyethanesulfonamide], for which the pEC50 is 9.89.

For `COc1cccc(OC)c1-n1c(NS(=O)(=O)[C@@H](C)[C@@H](O)c2ccc(F)cn2)nnc1-c1ccc(C)o1` (single isomer, unassigned) [Example 59.0], the pEC50 is 9.80.

For `COc1cccc(OC)c1-n1c(NS(=O)(=O)[C@@H](C)[C@H](O)c2ccc(C#N)cc2F)nnc1-c1ccc(C)o1` (single isomer, unassigned) [Example 61.0], the pEC50 was 9.70.

Turning to `COc1cccc(OC)c1-n1c(NS(=O)(=O)[C@@H](CCO)[C@H](C)c2ncc(C)cn2)nnc1-c1ccc(C)o1` (single isomer, unassigned) [Example 62.0], the pEC50 is 9.66.

Turning to `COc1cccc(OC)c1-n1c(NS(=O)(=O)[C@@H](C)[C@@H](O)c2ccc(C)cn2)nnc1-c1ccc(C)o1` (single isomer, unassigned) [Example 63.0], the pEC50 was 9.62.

For the compound `COc1cccc(OC)c1-n1c(NS(=O)(=O)[C@H](C)[C@@H](O)c2ccc(C)cn2)nnc1-c1ccc(C)o1` (single isomer, unassigned) [Example 65.0], the pEC50 was 9.51.

Consider `COc1cccc(OC)c1-n1c(NS(=O)(=O)C[C@H](O)c2ccc(C#N)cn2)nnc1-c1ccc(C)o1` (single isomer, unassigned) [Example 66.0, (2R)-2-(5-Cyano-2-pyridinyl)-N-(4-(2,6-dimethoxyphenyl)-5-(5-methyl-2-furanyl)-4H-1,2,4-triazol-3-yl)-2-hydroxyethanesulfonamide or (2S)-2-(5-cyano-2-pyridinyl)-N-(4-(2,6-dimethoxyphenyl)-5-(5-methyl-2-furanyl)-4H-1,2,4-triazol-3-yl)-2-hydroxyethanesulfonamide], for which the pEC50 was 9.49.

Regarding `COCC[C@@H]([C@H](C)c1ncc(F)cn1)S(=O)(=O)Nc1nnc(-c2ccc(C)o2)n1-c1c(OC)cccc1OC` (single isomer, unassigned) [Example 67.0], the negative logarithm of the EC50 (pEC50) was 9.44.

With `COc1cccc(OC)c1-n1c(NS(=O)(=O)[C@@H](C)[C@H](O)c2ncc(C#N)cc2F)nnc1-c1ccc(C)o1` (single isomer, unassigned) [Example 68.0], the negative logarithm of the EC50 (pEC50) is 9.43.

Turning to `COCC[C@@H](Cc1ncc(C)cn1)S(=O)(=O)Nc1nnc(-c2ccc(C)o2)n1-c1c(OC)cccc1OC` (single isomer, unassigned) [Example 71.0, (2R)—N-(4-(2,6-Dimethoxyphenyl)-5-(5-methyl-2-furanyl)-4H-1,2,4-triazol-3-yl)-4-methoxy-1-(5-methyl-2-pyrimidinyl)-2-butanesulfonamide or (2S)—N-(4-(2,6-dimethoxyphenyl)-5-(5-methyl-2-furanyl)-4H-1,2,4-triazol-3-yl)-4-methoxy-1-(5-methyl-2-pyrimidinyl)-2-butanesulfonamide], the negative-log EC50 (pEC50) is 9.33.

As for `COC[C@@H](Cc1ncc(F)cn1)S(=O)(=O)Nc1nnc(-c2ccc(C)o2)n1-c1c(OC)cccc1OC` (single isomer, unassigned) [Example 72.0, (2R)—N-(4-(2,6-Dimethoxyphenyl)-5-(5-methyl-2-furanyl)-4H-1,2,4-triazol-3-yl)-1-(5-fluoro-2-pyrimidinyl)-3-methoxy-2-propanesulfonamide or (2S)—N-(4-(2,6-dimethoxyphenyl)-5-(5-methyl-2-furanyl)-4H-1,2,4-triazol-3-yl)-1-(5-fluoro-2-pyrimidinyl)-3-methoxy-2-propanesulfonamide], the pEC50 was 9.32.

As to `COc1cccc(OC)c1-n1c(NS(=O)(=O)[C@H](C)[C@H](O)c2ccc(F)cc2CO)nnc1-c1ccc(C)o1` (single isomer, unassigned) [Example 73.0], the negative logarithm of the EC50 (pEC50) was 9.31.

Take `COC[C@@H](Cc1ncc(F)cn1)S(=O)(=O)Nc1nnc(-c2ccc(C)o2)n1-c1c(OC)cccc1OC` (single isomer, unassigned) [Example 78.0, (2R)—N-(4-(2,6-Dimethoxyphenyl)-5-(5-methyl-2-furanyl)-4H-1,2,4-triazol-3-yl)-1-(5-fluoro-2-pyrimidinyl)-3-methoxy-2-propanesulfonamide or (2S)—N-(4-(2,6-dimethoxyphenyl)-5-(5-methyl-2-furanyl)-4H-1,2,4-triazol-3-yl)-1-(5-fluoro-2-pyrimidinyl)-3-methoxy-2-propanesulfonamide]: the pEC50 was 9.11.

On to `COc1cccc(OC)c1-n1c(NS(=O)(=O)[C@@H](C)[C@@H](O)c2ccc(F)cn2)nnc1-c1ccc(C)o1` (single isomer, unassigned) [Example 79.0], for which the pEC50 was 9.01.

As to `COc1cccc(OC)c1-n1c(NS(=O)(=O)[C@@H](C)[C@H](O)c2ccc(F)c(C#N)c2)nnc1-c1ccc(C)o1` (single isomer, unassigned) [Example 81.0], the pEC50 is 8.96.

Consider `COc1cccc(OC)c1-n1c(NS(=O)(=O)[C@H](C)[C@H](O)c2ccc(C#N)c(C)n2)nnc1-c1ccc(C)o1` (single isomer, unassigned) [Example 86.0], for which the pEC50 was 9.64.
